From ChEMBL document CHEMBL5614437, “Antibacterial and Anti-Inflammatory Activity of Branched Peptides Derived from Natural Host Defense Sequences” (J Med Chem, 2024)
Converted amounts (≈) assume the structure as drawn. The source made the active and inactive calls. The calls are words filed in the database; no cut-off is given here. Where a SMILES comes first, the peptide text is derived from it. Bridges are numbered along the chain shown (N, C = ends). Roman numbers before positions name the chains, in order.

Legend:
[1] = Stability of compound in human serum at 180 uM measured after 24 hrs by HPLC-MS analysis; format: ADME, cell-free
[2] = Stability of compound in human serum at 180 uM measured after 4 hrs by HPLC-MS analysis; format: ADME, cell-free
Klebsiella pneumoniae [3] = experiment: Antibacterial activity against colistin-resistant Klebsiella pneumoniae incubated for 12 hrs by microdilution method; format: functional
Erythrocyte [4] = experiment: Hemolytic activity in human RBC assessed as hemolysis at ~15 uM incubated for 2 hrs by absorbance based plate reader analysis; format: toxicity, cell-based
Klebsiella pneumoniae [5] = experiment: Antibacterial activity against Klebsiella pneumoniae ATCC43816 incubated for 12 hrs by microdilution method; format: functional
Escherichia coli [6] = experiment: Antibacterial activity against Escherichia coli TG1 incubated for 12 hrs by microdilution method; format: functional
Pseudomonas aeruginosa = experiment: Antibacterial activity against Pseudomonas aeruginosa ATCC 27853 incubated for 12 hrs by microdilution method; format: functional
Escherichia coli [7] = experiment: Antibacterial activity against Escherichia coli clinical isolate LC711/14 incubated for 12 hrs by microdilution method; format: functional
Staphylococcus aureus = experiment: Antibacterial activity against Staphylococcus aureus USA300 incubated for 12 hrs by microdilution method; format: functional
Enterococcus faecalis = experiment: Antibacterial activity against Enterococcus faecalis 51299 incubated for 12 hrs by microdilution method; format: functional
RAW264.7 [8] = experiment: Cytotoxicity against mouse RAW264.7 cells assessed as cell killing incubated for 4 to 24 hrs by crystal violet staining based analysis; format: toxicity; details: time 4-24 hrs
Cell membrane [9] = experiment: Induction of cytoplasmic membrane permeabilization in Escherichia coli TG1 assessed as loss of surface smoothness at 2 times of MIC measured after 30 to 60 mins by SEM analysis; details: time 30-60 min
Escherichia coli [10] = experiment: Antibiofilm activity against 24 hrs preformed biofilm in Escherichia coli TG1 assessed as reduction in preformed biofilm incubated for 14 hrs by absorbance based analysis; format: functional
Klebsiella pneumoniae [11] = experiment: Antibiofilm activity against 24 hrs preformed biofilm in Klebsiella pneumoniae ATCC43816 assessed as reduction in preformed biofilm incubated for 14 hrs by absorbance based analysis; format: functional
Lipopolysaccharide (LPS) = experiment: Binding affinity to biotin-tagged LPS (unknown origin) preincubated for 30 mins followed by compound addition and 30 mins of incubation with streptavidin-POD by ELISA based microplate spectrophotometer; format: subcellular; details: dose 1-10 µg/ml
Cell membrane [12] = experiment: Induction of cytoplasmic membrane permeabilization in Escherichia coli TG1 assessed as wrinkling of membrane surface at 2 times of MIC measured after 30 to 60 mins by SEM analysis; details: time 30-60 min
Cell membrane [13] = experiment: Induction of cytoplasmic membrane permeabilization in Escherichia coli TG1 assessed as increase in fluorescence at 2 times of MIC measured after 10 mins by PI/Sytox green dye based analysis; format: cell membranes
Cell membrane [14] = experiment: Induction of cytoplasmic membrane permeabilization in Escherichia coli TG1 assessed as increase in fluorescence incubated for 100 to 120 mins by PI/Sytox green dye based analysis; details: dose 1.5-3 µM, time 100-120 min
Erythrocyte [15] = experiment: Hemolytic activity in human RBC assessed as hemolysis at 0.25 to 100 uM incubated for 2 hrs by absorbance based plate reader analysis; format: toxicity, cell-based; details: dose 0.25-100 µM
RAW264.7 [16] = experiment: Cytotoxicity against mouse RAW264.7 cells assessed as cell death at 1 log concentration incubated for 4 to 24 hrs by crystal violet staining based analysis relative to control; format: toxicity; details: time 4-24 hrs
Cell membrane [17] = experiment: Induction of cytoplasmic membrane permeabilization in Escherichia coli TG1 assessed as enlargement of bacterial cells at 2 times of MIC measured after 30 to 60 mins by SEM analysis; format: cell membranes; details: time 30-60 min
Cell membrane [18] = experiment: Induction of cytoplasmic membrane permeabilization in Escherichia coli TG1 assessed as increase in fluorescence at MIC measured after 40 to 50 mins by PI/Sytox green dye based analysis; details: time 40-50 min
[19] = Selectivity ratio of MBIC80 for antibiofilm activity against preformed biofilm in Escherichia coli TG1 to MIC for antibacterial activity against Escherichia coli TG1; format: functional
RAW264.7 [20] = experiment: Cytotoxicity against mouse RAW264.7 cells assessed as cell killing at 200 uM incubated for 4 to 24 hrs by crystal violet staining based analysis relative to control; format: toxicity; details: raw264.7, 200 µM, time 4-24 hrs
Escherichia coli [21] = experiment: Antibiofilm activity against Escherichia coli TG1 assessed as inhibition of biofilm formation incubated for 24 hrs by absorbance based analysis; format: functional
Klebsiella pneumoniae [22] = experiment: Antibiofilm activity against Klebsiella pneumoniae ATCC43816 assessed as inhibition of biofilm formation incubated for 24 hrs by absorbance based analysis; format: functional
Erythrocyte [23] = experiment: Hemolytic activity in human RBC assessed as hemolysis at 10 times of MIC incubated for 2 hrs by absorbance based plate reader analysis; format: toxicity, cell-based
Erythrocyte [24] = experiment: Hemolytic activity in human RBC assessed as hemolysis at […] incubated for 2 hrs by absorbance based plate reader analysis; format: toxicity, cell-based

Compound	Stability [1]	Stability [2]	MIC (Klebsiella pneumoniae [3]) [µM]	MIC (Klebsiella pneumoniae [5]) [µM]	MIC (Escherichia coli [6]) [µM]	MIC (Pseudomonas aeruginosa) [µM]	MIC (Escherichia coli [7]) [µM]	MIC (Staphylococcus aureus) [µM]	MIC (Enterococcus faecalis) [µM]	other results
H-LLKKVLKAAAK-OH	Unstable	Unstable	–	–	–	–	–	–	–	–
CC[C@H](C)[C@H](N)C(=O)N[C@@H](CC(N)=O)C(=O)N[C@@H](CC(C)C)C(=O)N[C@@H](CCCCN)C(=O)N[C@@H](CCCCN)C(=O)N[C@@H](CC(C)C)C(=O)N[C@@H](C)C(=O)N[C@@H](CCCCN)C(=O)N[C@@H](CC(C)C)C(=O)NCCCC[C@H](NC(=O)[C@H](CC(C)C)NC(=O)[C@H](CCCCN)NC(=O)[C@H](C)NC(=O)[C@H](CC(C)C)NC(=O)[C@H](CCCCN)NC(=O)[C@H](CCCCN)NC(=O)[C@H](CC(C)C)NC(=O)[C@H](CC(N)=O)NC(=O)[C@@H](N)[C@@H](C)CC)C(=O)NCCCC[C@H](NC(=O)[C@H](CCCCNC(=O)[C@H](CC(C)C)NC(=O)[C@H](CCCCN)NC(=O)[C@H](C)NC(=O)[C@H](CC(C)C)NC(=O)[C@H](CCCCN)NC(=O)[C@H](CCCCN)NC(=O)[C@H](CC(C)C)NC(=O)[C@H](CC(N)=O)NC(=O)[C@@H](N)[C@@H](C)CC)NC(=O)[C@H](CC(C)C)NC(=O)[C@H](CCCCN)NC(=O)[C@H](C)NC(=O)[C@H](CC(C)C)NC(=O)[C@H](CCCCN)NC(=O)[C@H](CCCCN)NC(=O)[C@H](CC(C)C)NC(=O)[C@H](CC(N)=O)NC(=O)[C@@H](N)[C@@H](C)CC)C(N)=O	–	–	6 (≈ 26.9 µg/mL)	12 (≈ 53.9 µg/mL)	0.7 (≈ 3.14 µg/mL)	3 (≈ 13.5 µg/mL)	6 (≈ 26.9 µg/mL)	> 25	> 25	Activity (Erythrocyte [4]): Toxic
I: H-KKLLGKNWKLMKK-NH2 / II: H-KKLLGKNWKLMK / III: H-KKLLGKNWKLM / IV: H-KKLLGKNWKLM (amide I:12-IV:C, I:13-II:C, II:12-III:C)	Stable	Stable	> 25	25	3	3	> 25	> 25	> 25	LC50 (RAW264.7 [8]): 1 10^-5M; Activity (Cell membrane [9]): Active; MBIC80 (Escherichia coli [10]): 25 µM; MBIC80 (Klebsiella pneumoniae [11]): 50 µM; Activity (Lipopolysaccharide (LPS)): Dose-Dependent Effect; Activity (Cell membrane [12]): Active; Activity (Cell membrane [13]): Active; Activity (Cell membrane [14]): Dose-Dependent Effect; Activity (Erythrocyte [15]): Non-Toxic; Activity (RAW264.7 [16]): 100%; Activity (Cell membrane [17]): Active; Activity (Cell membrane [18]): Active; Selectivity ratio [19]: 8
H-GRFKRFRKKL-OH	Unstable	Stable	–	–	–	–	–	–	–	–
CC(C)C[C@H](NC(=O)[C@@H](NC(=O)[C@@H](NC(=O)[C@@H](N)CO)[C@@H](C)O)C(C)C)C(=O)N[C@H](C(=O)N[C@@H](CO)C(=O)N[C@@H](CCCCN)C(=O)N[C@@H](Cc1ccc(O)cc1)C(=O)N[C@@H](CCCNC(=N)N)C(=O)NCCCC[C@H](NC(=O)[C@H](CCCNC(=N)N)NC(=O)[C@H](Cc1ccc(O)cc1)NC(=O)[C@H](CCCCN)NC(=O)[C@H](CO)NC(=O)[C@@H](NC(=O)[C@H](CC(C)C)NC(=O)[C@@H](NC(=O)[C@@H](NC(=O)[C@@H](N)CO)[C@@H](C)O)C(C)C)[C@@H](C)O)C(=O)NCCCC[C@H](NC(=O)[C@H](CCCCNC(=O)[C@H](CCCNC(=N)N)NC(=O)[C@H](Cc1ccc(O)cc1)NC(=O)[C@H](CCCCN)NC(=O)[C@H](CO)NC(=O)[C@@H](NC(=O)[C@H](CC(C)C)NC(=O)[C@@H](NC(=O)[C@@H](NC(=O)[C@@H](N)CO)[C@@H](C)O)C(C)C)[C@@H](C)O)NC(=O)[C@H](CCCNC(=N)N)NC(=O)[C@H](Cc1ccc(O)cc1)NC(=O)[C@H](CCCCN)NC(=O)[C@H](CO)NC(=O)[C@@H](NC(=O)[C@H](CC(C)C)NC(=O)[C@@H](NC(=O)[C@@H](NC(=O)[C@@H](N)CO)[C@@H](C)O)C(C)C)[C@@H](C)O)C(N)=O)[C@@H](C)O (HELM PEPTIDE1{S.T.V.L.T.S.K.Y.R.K.K.[am]}|PEPTIDE2{S.T.V.L.T.S.K.Y.R.K}|PEPTIDE3{S.T.V.L.T.S.K.Y.R}|PEPTIDE4{S.T.V.L.T.S.K.Y.R}$PEPTIDE1,PEPTIDE4,10:R3-9:R2|PEPTIDE1,PEPTIDE2,11:R3-10:R2|PEPTIDE2,PEPTIDE3,10:R3-9:R2$$$V2.0)	–	–	–	–	25 (≈ 114 µg/mL)	–	–	–	–	–
I: H-INLKAIAALAKKLLKK-NH2 / II: H-INLKAIAALAKKLLK / III: H-INLKAIAALAKKLL / IV: H-INLKAIAALAKKLL (amide I:15-IV:C, I:16-II:C, II:15-III:C)	–	–	–	–	12.5	–	–	–	–	–
H-TLLKKVLKAAAK-OH	Unstable	Stable	–	–	–	–	–	–	–	–
I: H-LLKKVLKAAAKKK-NH2 / II: H-LLKKVLKAAAKK / III: H-LLKKVLKAAAK / IV: H-LLKKVLKAAAK (amide I:12-IV:C, I:13-II:C, II:12-III:C)	Stable	Stable	> 25	12.5	1.5	6	6	> 25	> 25	Activity (Cell membrane [9]): Active; MBIC80 (Escherichia coli [10]): 50 µM; MBIC80 (Klebsiella pneumoniae [11]): 50 µM; Activity (Lipopolysaccharide (LPS)): Dose-Dependent Effect; Activity (RAW264.7 [20]): 100%; Activity (Cell membrane [12]): Active; Activity (Cell membrane [13]): Active; IC20 (Escherichia coli [21]): 6 µM; Activity (Cell membrane [14]): Dose-Dependent Effect; IC20 (Klebsiella pneumoniae [22]): > 50 µM; Activity (Erythrocyte [23]): Non-Toxic; Activity (Cell membrane [17]): Active; Activity (Cell membrane [18]): Active
I: H-KLLKRIKTLLKK-NH2 / II: H-KLLKRIKTLLK / III: H-KLLKRIKTLL / IV: H-KLLKRIKTLL (amide I:11-IV:C, I:12-II:C, II:11-III:C)	–	–	12.5	6	6	6	6	3	25	Activity (Erythrocyte [24]): Toxic
H-KKLLGKNWKLM-OH	Unstable	Unstable	–	–	–	–	–	–	–	–
I: H-KRLWHKVGPFKK-NH2 / II: H-KRLWHKVGPFK / III: H-KRLWHKVGPF / IV: H-KRLWHKVGPF (amide I:11-IV:C, I:12-II:C, II:11-III:C)	–	–	–	–	12.5	–	–	–	–	–
